Patent publication US20090270456A1, “Novel chemical compounds” (priority 2004, published 2009)

Assays:
hYAK3 = target: T1, hYAK3 (Homo sapiens, UniProt O43781); test: YAK3 scintillation proximity assay using Ser164 of myelin basic protein as the phosphoacceptor; format: biochemical; conditions: purified GST-hYak3-His6, 4 μM Ser164 peptide, 0.001 mM ATP, 2 hours room temperature; read-out: pIC50 values (converted)
T1 construct: GST (N); His6 (C); made in house; host or cells: baculovirus expression system in Sf9 cells
T1 sequence (O43781 124-526): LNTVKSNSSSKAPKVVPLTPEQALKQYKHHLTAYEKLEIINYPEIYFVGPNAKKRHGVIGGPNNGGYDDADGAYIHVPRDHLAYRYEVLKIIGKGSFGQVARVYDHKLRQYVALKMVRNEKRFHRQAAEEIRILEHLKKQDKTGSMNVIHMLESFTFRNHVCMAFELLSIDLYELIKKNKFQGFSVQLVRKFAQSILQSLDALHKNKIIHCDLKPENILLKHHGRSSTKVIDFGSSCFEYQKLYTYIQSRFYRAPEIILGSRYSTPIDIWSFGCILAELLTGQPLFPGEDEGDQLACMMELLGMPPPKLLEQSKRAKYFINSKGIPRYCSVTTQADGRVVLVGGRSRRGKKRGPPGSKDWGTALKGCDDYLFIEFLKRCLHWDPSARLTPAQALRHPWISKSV
Procedure: YAK3 Scintillation Proximity Assays Using Ser164 of Myelin Basic Protein as the Phosphoacceptor
The source of Ser164 substrate peptide The biotinylated Ser164, S164A peptide(Biotinyl—LGGRDSRAGS*PMARR—OH), sequence derived from the C-terminus of bovine myelin basic protein (MBP) with Ser162 substituted as Ala162, was purchased from California Peptide Research Inc. (Napa, Calif.), and its purity was determined by HPLC. Phosphorylation occurs at position 164 (marked S* above). The calculated molecular mass of the peptide was 2166 dalton. Solid sample was dissolved at 10 mM in DMSO, aliquoted, and stored at −20° C. until use.
The source of hYAK3 enzyme: Glutathione-S-Transferase (GST)-hYak3-His6 containing amino acid residues 124-526 of human YAK3 (aa 124-526 of SEQ ID NO 2. in U.S. Pat. No. 6,323,318) was purified from baculovirus expression system in Sf9 cells using Glutathione Sepharose 4B column chromatography followed by Ni-NTA-Agarose column chromatography. Purity greater than 65% typically was achieved. Samples, in 50 mM Tris, 150 mM NaCl, 10% glycerol, 0.1% Triton, 250 mM imidazole, 10 mM β-mercapto ethanol, pH 8.0. were stored at −80° C. until use.
Kinase assay of purified hYAK3: Assays were performed in 96 well (Costar, Catalog No. 3789) or 384 well plates (Costar, Catalog No. 3705). […] Compounds, titrated in DMSO, were evaluated at concentrations ranging from 50 μM to 0.5 nM. […]

[1] = target: T2, casein kinase 2 alpha (CK2α) (Homo sapiens, UniProt P68400); test: CK2α kinase assay using peptide phosphoacceptor (substrate phosphorylation, SPA); format: biochemical; conditions: purified CK2α (co-expressed with CK2β), 0.001 mM peptide, 0.001 mM ATP, 3 hours room temperature; read-out: pIC50 values (converted)
T2 construct: made in house; host or cells: baculovirus-based vectors in Sf21 insect cells
Procedure: Compounds of the present invention were also tested for casein kinase 2 alpha (CK2α) inhibitory activity in substrate phosphorylation assays. This assay examines the ability of small molecule organic compounds to inhibit the serine phosphorylation of a peptide substrate.
Kinase Assays Using Peptide Phosphoacceptor
The biotinylated peptide (Biotin—GGRRRDDDS*DDD-OH), was purchased from Biosource International, Inc. (Camarillo, Calif.), and its purity was determined by HPLC. Phosphorylation of serine (S*) occurs under assay conditions described. The calculated molecular mass of the peptide was 1713 dalton. Solid sample was dissolved at 10 mM in DMSO, aliquoted, and stored at −20° C. until use.
Recombinant expression of casein kinase 2 alpha (CK2α), using baculovirus-based vectors in Sf21 insect cells and purified by P11 phosphocellulose (Whatman) chromatography of the clarified cell lysate, produced constitutively active enzyme. CK2α was co-expressed with CK2β. Samples were stored at −20° C. in the presence of 50% glycerol until use.
Kinase Assay of Purified CK2α:
Assays were performed in 384 well plates (Costar, Catalog No. 3705). Compounds first were delivered to the plate in one microliter DMSO, followed by reaction mix (in 40 ul volume), which contained in final concentrations 25 mM Hepes buffer, pH 7.4; […]; 150 mM NaCl; 1 mM β-mercapto ethanol; 0.0025% Tween-20; 0.001 mM ATP, 0.1 μCi of [γ-33P]ATP; purified CK2α (6 ng/assay), and 0.001 mM peptide. […]
The data for dose responses were plotted as % Inhibition, calculated with the data reduction formula 100*(1−[(U1−C2)/(C1−C2)]), versus concentration of compound, where U is the unknown value, C1 is the average control value obtained for DMSO, and C2 is the average control value obtained for 0.05M EDTA Data were fitted to the curve described by: y=((Vmax*x)/(K+x)) where Vmax is the upper asymptote and K is the IC50. The results for each compound were recorded as pIC50 calculated as follows: pIC50=−Log 10(K) in Table 2.

T2 sequence (P68400 whole entry): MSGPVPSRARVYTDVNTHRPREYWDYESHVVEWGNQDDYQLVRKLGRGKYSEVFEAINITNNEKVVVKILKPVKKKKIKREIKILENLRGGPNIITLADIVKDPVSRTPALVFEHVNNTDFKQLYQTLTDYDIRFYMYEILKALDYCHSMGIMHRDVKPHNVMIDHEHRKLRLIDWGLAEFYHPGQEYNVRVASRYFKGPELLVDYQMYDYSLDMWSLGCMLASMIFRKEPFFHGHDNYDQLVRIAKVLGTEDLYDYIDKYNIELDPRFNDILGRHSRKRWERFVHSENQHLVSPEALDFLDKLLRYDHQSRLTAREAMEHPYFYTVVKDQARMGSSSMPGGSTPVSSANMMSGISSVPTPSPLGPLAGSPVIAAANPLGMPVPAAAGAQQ
T2 sequence (P67870 whole entry partner): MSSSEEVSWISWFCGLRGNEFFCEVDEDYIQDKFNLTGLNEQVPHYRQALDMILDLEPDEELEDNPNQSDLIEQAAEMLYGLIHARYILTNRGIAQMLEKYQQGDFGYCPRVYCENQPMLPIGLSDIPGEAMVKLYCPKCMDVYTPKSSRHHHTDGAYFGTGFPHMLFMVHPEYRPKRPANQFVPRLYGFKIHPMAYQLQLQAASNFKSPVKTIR

| SMILES | IC50 (hYAK3) [nM] | IC50 [1] [nM] |
| --- | --- | --- |
| COc1ccc(-c2nc(Nc3ccccc3C(F)(F)F)c(C(=O)O)s2)cc1 [Ibd, 5-Carboxyl-2-(4-methoxyphenyl)-4-(2-trifluoromethylanilino)thiazole] | 102 to 1000 |  |
| COc1cccc(-c2nc(Nc3ccccc3F)c(C(=O)O)s2)c1 [Ibf, 5-Carboxyl-4-(2-fluoroanilino)-2-(3-methoxyphenyl)thiazole] | 1020 to 10000 |  |

The remaining lines, values ahead:

| IC50 (hYAK3) [nM] | IC50 [1] [nM] | SMILES |
| --- | --- | --- |
|  | 1020 to 10000 | NC(=O)c1sc(-c2ccc3c(c2)CCO3)nc1Nc1ccccc1Cl [Ieb, 4-(2-Chlorophenylamino)-2-(2,3-dihydrobenzofuran-5-yl) thiazole-5-carboxylic acid amide] |
|  | 10.2 to 100 | COc1ccc(-c2nc(Nc3cc(C(N)=O)ccc3Cl)c(C(=O)O)s2)cc1 [Ief, 4-(5-Carbamoyl-2-chlorophenylamino)-2-(4-methoxyphenyl)thiazole-5-carboxylic acid] |
|  | 102 to 1000 | COc1ccc(-c2nc(Nc3cc(S(=O)(=O)O)ccc3Cl)c(C(=O)O)s2)cc1 [Ieg, 4-(2-Chloro-5-sulfophenylamino)-2-(4-methoxyphenyl) thiazole-5-carboxylic acid] |
